From patent US9066516B2, “Uses of thaxtomin and thaxtomin compositions as herbicides” (priority 2008, dated 2015)

Columns and labels:
Assay type in all cases: in vivo
[1] = system: crabgrass; assay: Greenhouse synergy test MBI-005 + field crop herbicides (Example 11); conditions: 14 days
Description: […] other herbicides commonly used for field crops, glyphosate, glufosinate, synthetic version of bialaphos, and mesotrione were also tested for synergy with MBI-005 on crabgrass and ragweed.
There were 3 replicates per treatment which were sprayed with approximately ⅔ ml per replicate. The treatments were completely randomized and kept in a greenhouse at 25° C. The efficacy was rated at 7 and 14 days post treatment.

[2] = system: Barnyardgrass (Echinochloa crus-gali); assay: Pre-emergence test of MBI-005, lab (Example 12); conditions: pre-emergent; note: ranges in brackets are in %
Description: (§1) To further describe the spectrum of pre-emergence activity, tests were conducted in laboratory and field conditions. In laboratory testing, 35 seeds were placed on a ring of blotter paper inside a 3 cm petri dish and supplied with 4 ml of MBI-005 (≦0.1 mg MBI-005/ml). Water was used as a negative control and oryzalin applied as a positive control. Petri dishes were randomly placed in a growth room at 25° C. and 50% RH. Treatments were replicated three times and germinated seeds were counted 7 and 14 days after application; water was added as necessary to maintain moisture levels inside each petri dish.

[3] = system: Bearded Sprangletop (Leptochloa fascicularis); assay: Pre-emergence test of MBI-005, lab (Example 12); conditions: pre-emergent; note: ranges in brackets are in %
Description: as §1

[4] = system: Black nightshade (Solanum nigrum); assay: Pre-emergence test of MBI-005, lab (Example 12); conditions: pre-emergent; note: ranges in brackets are in %
Description: as §1

[5] = system: Bristlegrass/Foxtail (Setaria viridis); assay: Pre-emergence test of MBI-005, lab (Example 12); conditions: pre-emergent; note: ranges in brackets are in %
Description: as §1

[6] = system: Buckhorn plantain (Plantago lanceolata); assay: Pre-emergence test of MBI-005, lab (Example 12); conditions: pre-emergent; note: ranges in brackets are in %
Description: as §1

[7] = system: Canarygrass (Phalaris minior); assay: Pre-emergence test of MBI-005, lab (Example 12); conditions: pre-emergent; note: ranges in brackets are in %
Description: as §1

[8] = system: Clover (Trifolium repens); assay: Pre-emergence test of MBI-005, lab (Example 12); conditions: pre-emergent; note: ranges in brackets are in %
Description: as §1

[9] = system: Fall Panicum (Panicum dichotomiflorum); assay: Pre-emergence test of MBI-005, lab (Example 12); conditions: pre-emergent; note: ranges in brackets are in %
Description: as §1

[10] = system: Horseweed (R) (Conyza canadensis); assay: Pre-emergence test of MBI-005, lab (Example 12); conditions: pre-emergent, herbicide resistant population; note: ranges in brackets are in %
Description: as §1

[11] = system: Lambsquarters (Chenopodium album); assay: Pre-emergence test of MBI-005, lab (Example 12); conditions: pre-emergent; note: ranges in brackets are in %
Description: as §1

[12] = system: Late watergrass (R) (Echinochloa phyllopogon); assay: Pre-emergence test of MBI-005, lab (Example 12); conditions: pre-emergent, herbicide resistant population; note: ranges in brackets are in %
Description: as §1

[13] = system: Mustard (Brassica juncea); assay: Pre-emergence test of MBI-005, lab (Example 12); conditions: pre-emergent
Description: as §1

[14] = system: Palmer pigweed (R) (Amaranthus palmerii); assay: Pre-emergence test of MBI-005, lab (Example 12); conditions: pre-emergent, herbicide resistant population; note: ranges in brackets are in %
Description: as §1

[15] = system: Ragweed (Ambrosia artemisifolia); assay: Pre-emergence test of MBI-005, lab (Example 12); conditions: pre-emergent; note: ranges in brackets are in %
Description: as §1

[16] = system: Ryegrass (Lolium perenne); assay: Pre-emergence test of MBI-005, lab (Example 12); conditions: pre-emergent; note: ranges in brackets are in %
Description: as §1

[17] = system: Dandelion (Taraxacum oficinale); assay: Post-emergence test of MBI-005, lab (Example 13)
Description: (§2) To further describe the spectrum of post-emergence activity, tests were conducted in laboratory and field conditions. For laboratory testing, 3-10 plants (depending on the species) at the 1-2 leaf stage plants in 2.5 cm square pots containing Sunshine Mix No. 2 planting media were sprayed at 1 mg MBI-005/mL at a rate of 40 gal/A using a cabinet track sprayer. Negative controls were sprayed with water and positive controls with glufosinate. Pots were randomly placed in a growth room at 25° C. and 50% RH, and watered as necessary. Treatments were replicated five times and evaluated at 7 and 14 days for visual % damage, with 0% indicating no damage and 100% indicating plant death.

[18] = system: Lambsquarters (Chenopodium album); assay: Post-emergence test of MBI-005, lab (Example 13)
Description: as §2

[19] = system: Mallow (Malva parviflora); assay: Post-emergence test of MBI-005, lab (Example 13)
Description: as §2

[20] = system: Mustard (Brassica juncea); assay: Post-emergence test of MBI-005, lab (Example 13)
Description: as §2

[21] = system: Redstem filaree (Erodium cicutarium); assay: Post-emergence test of MBI-005, lab (Example 13)
Description: as §2

[22] = system: Sunflower (Helianthus anuus); assay: Post-emergence test of MBI-005, lab (Example 13)
Description: as §2

[23] = system: Yellow nutsedge (Cyperus esculentus); assay: Post-emergence test of MBI-005, lab (Example 13)
Description: as §2

[24] = system: crabgrass; assay: Post-emergent MBI-005 + Atrazine on crabgrass (Example 17); conditions: for AVG E (visual % damage): 7DAT; for AVG/ E (visual % damage): 14DAT
Description: Ten seedlings in 2.5 cm square pots containing plant growth mix were sprayed with two suboptimal rates of MBI-005, and 35% of the atrazine label rate (0.3 gallons/A), or a combination thereof, at a volume of 40 gal/A using a cabinet track sprayer. Negative controls were sprayed with water. Pots were randomly placed in a growth room at 25° C. and 50% RH, and watered as necessary. Treatments were replicated five times and evaluated at 7 and 14 days for visual % damage, with 0% indicating no damage and 100% indicating plant death.
(§3) Synergy was calculated as the ratio of observed (E) to expected (E/Ee) percent control using Colby's formula.

[25] = system: Smallflower umbrella sedge; assay: Post-emergent MBI-005 + Thiobencarb on Smallflower umbrella sedge (Example 21); conditions: 14 days
Description: […] Negative controls were sprayed with water. Pots were randomly placed in a growth room at 25° C. and 50% RH, and watered as necessary. Treatments were replicated three times and evaluated at 7 and 14 days for visual % damage, with 0% indicating no damage and 100% indicating plant death.
as §3

[26] = system: annual broadleaves, sedges and grasses; assay: Post-emergence spectrum of MBI-005, overall (Example 13); conditions: unless surfactants are added
Description: as §2
In field testing, field soil containing weeds at the 1-5 leaf stage were treated with 38.2 L MBI-005/ha at a spray volume of 374 L/ha. Treatments, including water as the negative control and WeedBGon or Preen Broadleaf as the positive control, were replicated four times and applied twice at a four week interval. The positive control on Late watergrass, Ricefield Bulrush, Smallflower sedge and Arrowhead was an herbicide containing as active ingredient 2,4-D and an organosilicone surfactant was added to MBI-005. Treatments were assessed for % control and % ground cover.
Post-emergent control of perennials was generally limited except for Oxalis pes-caprae.

[27] = 12.5% MBI-005 Label Rate (0.125 mg/mL)
[28] = 25% MBI-005 Label Rate (0.25 mg/mL)

SMILES: CN1C(=O)[C@](O)(Cc2cccc(O)c2)N(C)C(=O)[C@@H]1Cc1c[nH]c2cccc([N+](=O)[O-])c12 [thaxtomin A]
- % Control MBI-005 ([1]; MBI-005 0.125 mg/mL (glufosinate line)): 20.0%
- % Control MBI-005 ([1]; MBI-005 0.125 mg/mL (glyphosate line)): 28.3%
- Rating at 0.1 mg/ml (Reduction of Germination) [2]: ++++ (95-100)
- Rating at 0.1 mg/ml (Reduction of Germination) [3]: ++++ (95-100)
- Rating at 0.1 mg/ml (Reduction of Germination) [4]: ++++ (95-100)
- Rating at 0.1 mg/ml (Reduction of Germination) [5]: ++++ (95-100)
- Rating at 0.1 mg/ml (Reduction of Germination) [6]: ++++ (95-100)
- Rating at 0.1 mg/ml (Reduction of Germination) [7]: ++++ (95-100)
- Rating at 0.1 mg/ml (Reduction of Germination) [8]: ++++ (95-100)
- Rating at 0.1 mg/ml (Reduction of Germination) [9]: ++++ (95-100)
- Rating at 0.1 mg/ml (Reduction of Germination) [10]: ++++ (95-100)
- Rating at 0.1 mg/ml (Reduction of Germination) [11]: +++ (85-94)
- Rating at 0.1 mg/ml (Reduction of Germination) [12]: ++++ (95-100)
- Rating at 0.1 mg/ml (Reduction of Germination) [13]: ++++ (95-100)
- Rating at 0.1 mg/ml (Reduction of Germination) [14]: +++ (85-94)
- Rating at 0.1 mg/ml (Reduction of Germination) [15]: ++++ (95-100)
- Rating at 0.1 mg/ml (Reduction of Germination) [16]: ++++ (95-100)
- Rating at 1 mg/ml (Post-Emergence % control) [17]: ++ (51-80)
- Rating at 1 mg/ml (Post-Emergence % control) [18]: +++ (81-90)
- Rating at 1 mg/ml (Post-Emergence % control) [19]: + (0-50)
- Rating at 1 mg/ml (Post-Emergence % control) [20]: ++++ (91-100)
- Rating at 1 mg/ml (Post-Emergence % control) [21]: ++ (51-80)
- Rating at 1 mg/ml (Post-Emergence % control) [22]: ++ (51-80)
- Rating at 1 mg/ml (Post-Emergence % control) [23]: + (0-50)
- AVG E (visual % damage) [24, 27]: 10.0%
- AVG E (visual % damage) [24, 28]: 11.9%
- AVG/ E (visual % damage) [24, 27]: 10.0%
- AVG/ E (visual % damage) [24, 28]: 11.9%
- Observed Average % Efficacy (E) ([25]; first series, 2% MBI-005): 20. %
- Observed Average % Efficacy (E) ([25]; first series, .5% MBI-005): 3.3%
- Observed Average % Efficacy (E) ([25]; second series, 1% MBI-005): 10.0%
- Observed Average % Efficacy (E) ([25]; second series, 2% MBI-005): 79.2%
- post-emergent activity [26]: limited post-emergent activity
